Assay results published in publication PMC10932305, “RAR Inhibitors Display Photo-Protective and Anti-Inflammatory Effects in A2E Stimulated RPE Cells In Vitro through Non-Specific Modulation of PPAR or RXR Transactivation” (International Journal of Molecular Sciences, 2024).

Biological target: T1, RAR-α (retinoic acid receptor α) (Homo sapiens, UniProt P10276)
T1 construct: gene RARA; human recombinant RARα-LBD expressed in insect cells
T1 sequence (P10276 183-417 limits assumed): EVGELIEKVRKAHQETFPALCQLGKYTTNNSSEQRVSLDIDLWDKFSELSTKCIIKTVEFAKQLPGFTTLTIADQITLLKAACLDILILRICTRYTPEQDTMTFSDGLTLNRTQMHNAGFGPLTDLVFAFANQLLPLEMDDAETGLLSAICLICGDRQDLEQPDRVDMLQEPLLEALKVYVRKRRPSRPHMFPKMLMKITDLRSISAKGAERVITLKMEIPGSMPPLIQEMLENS
Assay: radioligand competition binding (Eurofins Cerep)

## CC(=C/C=C/C(C)=C/C=C/C=C(C)/C=C/C=C(C)/C=C/C(=O)O)/C=C/C(=O)O [NBX, norbixin]
  Kd: 47 µM

## CC1=C(/C=C/C(C)=C/C=C/C(C)=C/c2cc(/C=C/C=C(C)/C=C/C3=C(C)CCCC3(C)C)cc[n+]2CCO)C(C)(C)CCC1 [A2E]
  Kd: 1.4 µM
